Measured values as given in patent US4055640A, “Compositions and methods for controlling the growth of bacteria, fungi and algae using certain derivatives of N-(2,2-dichlorovinyl)salicylamides” (Nippon Kayaku Co., Ltd., priority 1975, dated 1977).

Tests used:
[1] = system: cucumber seedlings (variety: Sagamihanjiro); assay: Phytotoxicity on cucumber seedlings (Experimental Example 2); assay type: in vivo
Procedure: (§1) The cucumber seeds (variety: Sagamihanjiro) were sown in pots (diameter 18 cm). Eighty percent (80%) wettable powder (contents of active compound: 80%) of the present invention was diluted with water to obtain a suspension. The suspension was sprayed over the cucumber seedlings of the stage of 3-4 leaves in an amount of 20 ml per pot. After 24 hours, these pots were inoculated by means of spray of spore suspension of Cladosporium cucumerinum. The thus-inoculated seedlings were placed in a moist chamber at 20° C for 24 hours. The pots were continuously kept in a greenhouse at 20° C. The following wettable powders on the market were used as controls.

[2] = system: Cladosporium cucumerinum (cucumber scab); assay: Exterminating test on cucumber scab (Experimental Example 2); assay type: in vivo; design: scale not given here; conditions: 5 days after inoculation
Procedure: Exterminating test on cucumber scab
as §1
70% wettable powder of 1,2-bis (3-methoxy carbonyl-2-thioureid) benzene (hereinafter referred to as "thiophanate methyl") on the market.
75% wettable powder of ethylene bis (dithiocarbamic acid) manganese (hereinafter referred to as "maneb") on the market. After 5 days of the inoculation, degrees attached by the pathogen were observed and the results were shown in Table 3 with an "Infected Index". The "Infected Index" was calculated as follows: [formula] A : Number of leaves which were killed by hard attack B : Number of leaves severely attacked
C : number of leaves slightly attacked
D : number of healthy leaves

[3] = system: Rhizoctonia solani (damping-off of cucumber); assay: Exterminating test on damping-off of cucumber (Experimental Example 3); assay type: in vivo; conditions: soil drench 50 ml per pot, 10 days; for Percentage of healthy seedlings: 1,000 ppm; for pest or weed control at 1000 ppm: Rhizoctonia solani, soil, 240 h, 1,000 ppm, read-out: Percentage of healthy seedlings
Procedure: Exterminating test on damping-off of cucumber
The pots (diameter, 12 cm) were filled with field soil and then soil infected by adding Rhizoctonia solani in an amount of 5 grams per pot uniformly into the pots. Thereafter, 10 seeds of cucumber (variety: Azumamidori) were sown in each pot.
Eighty percent (80%) wettable powder of the present invention was diluted with water to obtain a suspension and each pot was drenched with the suspension in an amount of 50 milliliters. Then, the pots were transferred to the greenhouse. Fifty percent (50%) wettable powder of pentachloronitro benzene (hereinafter referred to as PCNB) on the market was used as a control and tested by the same method. After 10 days of the inoculation, degrees attacked by the pathogen were observed and a "Percentage of healthy seedlings" was calculated. The "Percentage of healthy seedlings" was calculated as follows: [formula]

[4] = system: Fusarium wilt of cucumber; assay: Exterminating test on Fusarium wilt of cucumber (Experimental Example 4); assay type: in vivo, Fusarium oxysporum f, cucumerinum; conditions: 500 ppm, soil drench 100 ml per pot, two weeks; for pest or weed control at 500 ppm: Fusarium, soil, 336 h, read-out: Percentage of healthy seedlings
Procedure: Exterminating test on Fusarium wilt of cucumber Twenty (20) grams of infected soil was added uniformly into each pot which was filled with steam sterilized field soil, then 18 seeds of cucumber (variety; Tokiwazibai) were sowed in each pot. Eighty percent (80%) wettable powder of the present invention was diluted with water to obtain a suspension, and each pot was drenched with the suspension in an amount of 100 ml. Fifty percent (50%) wettable powder of methyl-1-(butylcarbamoyl) 2-benzimidazol carbamate (hereinafter referred to as Benlate) on the market was used as a control and tested by the same method. After two weeks of planting, degrees attacked by the pathogen was observed and a "percentage of healthy seedlings" was calculated as follows: [formula]

[5] = system: seedling blight of rice plant (pathogen Fusarium sp. and Rhizoctonia sp.); assay: Exterminating test on seedling blight of rice plant (Experimental Example 1); assay type: in vivo; conditions: for Percentage of healthy seedlings at 0.25 g/box: soil, read-out: Percentage of healthy seedlings
Procedure: Exterminating test on seedling blight of rice plant Nursery boxes (60 × 30 × 3 cm) were filled with soil which were contaminated with pathogen (Fusarium sp. and Rhizoctonia sp.) The dust in which the present compound was contained in a ratio of 5% by weight was added in the box in a ratio of 5 grams per box and mixed well with soil. Thereafter, seeds of rice plant (variety: Nihonbare) were sowed in drills at a rate of 0.3 liter per box and grown up in a lighting chamber at 17° C. After 7 days from the sowing, the boxes were carried out in the field. Furthermore, 10 days thereafter the observations were made. Four percent (4%) dust of 3-hydroxy-5-methyl isoxazol (hereinafter referred to as hydroxyisoxazol) on the market was used as a control and tested by the same method. The test results are shown in Table 2 with a "percentage of healthy seedlings". The percentage of healthy seedlings was calculated as follows: […]

[6] = system: Aspergillus niger, Penicillium citrinum, Cladosporium harbarum and chaetomium globosum; assay: Degree of growth inhibition of fungi on treated beach plates (Example 25); assay type: cell-based; design: scale not given here; conditions: numerical rating, 2 weeks
Procedure: The emulsifiable concentrates which were prepared by Example 20 were diluted with water 400 times and 800 times to form emulsions.
(§2) The square plates of beach of which a side was 5 cm long and thickness was 5 mm were dipped into the emulsion for 2 minutes and dried for 24 hours at room temperature.
(§3) The square plates were placed on the surface of agar plates. The suspensions which contained spores of Aspergillus niger, Penicillium citrinum, Cladosporium harbarum and chaetomium globosum were respectively sprayed on the agar plates and the square plates.
The test fungi were cultivated in the incubator at the humidity of 95% and the temperature of 28° C for 2 weeks. The degree of growth inhibition is defined in terms of the following numerical ratings.

summer orange seedlings = assay: Phytotoxicity on summer orange seedlings (Experimental Example 6); assay type: in vivo
Procedure: (§4) Exterminating test on citrus canker. 4-year-old summer orange seedlings, planted in unglazed pots having a diameter of 20 cm, were employed in this test. Eighty percent (80%) wettable powder of the present invention was diluted with water, and sprayed over the seedlings in an amount of 50 ml per pot. The leaves of the seedlings were inoculated Xanthomonas citri by means of a needle. After the inoculation, the seedlings were maintained in a moist chamber at 25° C for 24 hours. Then the pots were transferred into the greenhouse. Streptomycin 20% wettable powder was used as a control, and tested by the same method. After 2 weeks after the inoculation, degrees of disease attack were observed, and an "Effect Index" was calculated as follows: [formula]

[7] = system: Xanthomonas citri (citrus canker); assay: Exterminating test on citrus canker (Experimental Example 6); assay type: in vivo; conditions: for pest or weed control at 1000 ppm: read-out: Effect Index, 1,000 ppm, 2 weeks after inoculation
Procedure: as §4

[8] = system: Aspergillus niger, Penicillium citrinum, Cladosporium harbarum and chaetomium globosum; assay: Degree of growth inhibition of fungi on treated beach plates (Example 17); assay type: cell-based; design: scale not given here; conditions: numerical rating, 2 weeks
Procedure: The emulsifiable concentrates which were prepared by Example 10 were diluted with water 400 times and 800 times to form emulsions.
as §2, §3
The test fungi were cultivated in the incubator at the humidity of 95% and the temperature of 28° C for 2 weeks.
The degree of growth inhibition is defined in terms of the following numerical ratings.

[9] = system: seedlings of kidney beans (variety: Orient); assay: Phytotoxicity on kidney beans (Experimental Example 5); assay type: in vivo; conditions: 500 ppm
[10] = system: botrytis cinerea (gray mold); assay: Exterminating test on gray mold of tomato (Experimental Example 5); assay type: in vivo; conditions: 500 ppm, 48 hours after inoculation, kidney bean leaves
Procedure: Exterminating test on gray mold of tomato The seedlings of kidney beans (variety: Orient) of 5-6 leaves stage were employed in this test. Eighty percent (80%) wettable powder of the present invention was diluted with water and sprayed over the seedlings in an amount of 10 ml per pot. The leaves were cut from the plant at 24 hours after spraying, and placed in the petri dishes (12 cm in diameter). Thereafter disks (5 mm in diameter) were cut with a cork borer from potato dextrose agar on which the pathogen (botrytis cinerea) was cultured. The disks were placed on the leaves. The dishes were placed in such a moistural condition as to cause the pathogen to propagate. Thiophanate methyl 70% wettable powder on the market was used as a control and tested by the same method. After forty eight (48) hours after inoculation, diameters of the lesions were observed, and an "Effect Index" was calculated as follows; [formula]

[11] = 408 h, 0.25g/box a.i., 5% dust mixed with soil

Structure (SMILES) | pest or weed control at 1000 ppm [3] [%] | pest or weed control at 500 ppm [4] [%] | Percentage of healthy seedlings at 0.25 g/box [5, 11] [%] | further results
S=C([S-])NCCNC(=S)[S-].[Mn+2] [Maneb, ethylene bis (dithiocarbamic acid) manganese, reference compound] |  |  |  | Phytotoxicity ([1]; 1,500 ppm): Nil; Infected Index ([2]; 1,500 ppm): 12.5
O=C(NC=C(Cl)Cl)c1cc(Br)ccc1[O-].O=C(NC=C(Cl)Cl)c1cc(Br)ccc1[O-].[Cu+2] [compound 27] |  |  |  | Percentage of healthy seedlings [3]: 85%; Percentage of healthy seedlings [4]: 58.0%
CC(C)COC(=O)Oc1ccccc1C(=O)NC=C(Cl)Cl [compound 18] | 100 | 42 | 72.1 | Degree of growth inhibition ([6]; 0.0125 %): 2; Degree of growth inhibition ([6]; 0.025 %): 3
[H]/N=C(/N)N[C@H]1[C@H](O)[C@@H](O)[C@H](O[C@@H]2O[C@@H](C)[C@](O)(C=O)[C@H]2O[C@@H]2O[C@@H](CO)[C@H](O)[C@@H](O)[C@@H]2NC)[C@@H](N/C(N)=N\[H])[C@@H]1O [Streptomycin, reference compound] |  |  |  | Phytotoxicity (summer orange seedlings; 200 ppm): Nil; pest or weed control at 200 ppm ([7]; Xanthomonas citri, 336 h, read-out: Effect Index, 200 ppm, 2 weeks after inoculation): 28.7%
O=C(NC=C(Cl)Cl)c1cc(Br)ccc1O [compound 22] |  |  |  | Phytotoxicity (summer orange seedlings; 1,000 ppm): Nil
O=C(NC=C(Cl)Cl)c1ccccc1OC(=O)C(Cl)Cl [compound 14] | 95 | 62.8 | 70.8 | Phytotoxicity ([1]; 500 ppm): Nil; Phytotoxicity (summer orange seedlings; 1,000 ppm): Nil; Infected Index ([2]; 500 ppm): 7.9; pest or weed control at 1000 ppm ([7]; Xanthomonas citri, 336 h): 73.2%
Cc1ccc(C(=O)NC=C(Cl)Cl)c(O)c1 [compound 5] | 80 | 58.9 | 62 | Phytotoxicity ([1]; 500 ppm): Nil; Phytotoxicity (summer orange seedlings; 1,000 ppm): Nil; Infected Index ([2]; 500 ppm): 10.7; pest or weed control at 1000 ppm ([7]; Xanthomonas citri, 336 h): 98.2%
O=C(NC=C(Cl)Cl)c1cc(Br)ccc1O [compound 3] | 70 | 62.4 | 65.3 | Phytotoxicity (summer orange seedlings; 1,000 ppm): Nil
O=C(NC=C(Cl)Cl)c1ccccc1[O-].O=C(NC=C(Cl)Cl)c1ccccc1[O-].[Mn+2] [compound 28] |  |  |  | Percentage of healthy seedlings [3]: 100%; Percentage of healthy seedlings [4]: 57.0%; Phytotoxicity (summer orange seedlings; 1,000 ppm): Nil; Percentage of healthy seedlings ([5]; 0.25g/box a.i., 5% dust mixed with soil): 73.0%; Degree of growth inhibition ([8]; 0.0125 %): 3; Degree of growth inhibition ([8]; 0.025 %): 3; Effect Index ([7]; 1,000 ppm, 2 weeks after inoculation): 73.6
O=C(NC=C(Cl)Cl)c1cccc([N+](=O)[O-])c1O [compound 31] | 85 | 46 | 70.2 | 
COC(=O)NC(=S)Nc1ccccc1NC(=S)NC(=O)OC [Thiophanate methyl, 1,2-bis (3-methoxy carbonyl-2-thioureid) benzene, reference compound] |  |  |  | Phytotoxicity [9]: Nil; Phytotoxicity ([1]; 500 ppm): Nil; Effect Index [10]: 82; Infected Index ([2]; 500 ppm): 14.6
Cc1cc(O)no1 [Hydroxyisoxazol, 3-hydroxy-5-methyl isoxazol, reference compound] |  |  |  | Percentage of healthy seedlings at 0.2 g/box ([5]; 408 h, 0.20g/box a.i., 4% dust on the market (control)): 70.6%
CC(=O)Oc1ccc(Br)cc1C(=O)NC=C(Cl)Cl [compound 8] | 75 | 73.3 | 71.3 | Degree of growth inhibition ([6]; 0.0125 %): 3; Degree of growth inhibition ([6]; 0.025 %): 3
COc1ccccc1C(=O)NC=C(Cl)Cl [compound 15] | 60 | 51.2 | 70.2 | Phytotoxicity ([1]; 500 ppm): Nil; Infected Index ([2]; 500 ppm): 8.9
CCCCCCCCCCCC(=O)Oc1ccccc1C(=O)NC=C(Cl)Cl [compound 12] | 70 | 53.4 | 65 | 
O=C(NC=C(Cl)Cl)c1cc(Cl)cc(Cl)c1O [compound 33] |  | 48 | 70.4 | 
Cc1cccc(C(=O)NC=C(Cl)Cl)c1O [compound 4] | 90 | 68.7 | 76.6 | 
CC(=O)Oc1c(Cl)cc(Cl)cc1C(=O)NC=C(Cl)Cl [compound 32] | 75 | 73 | 69.8 | 
CC(=O)Oc1c(C(=O)NC=C(Cl)Cl)cccc1[N+](=O)[O-] [compound 35] | 95 | 79 | 71.2 | 
COC(=O)Oc1ccccc1C(=O)NC=C(Cl)Cl [Compound No. 16, O-methoxycarbonyl-N-(2,2-dichlorovinyl) salicylamide] | 100 | 38.2 | 71.5 | 
